# Measurements reported in US8487098B2, “Synergistic combination of flumetsulam or diclosulam with isothiazolones” (Dow Global Technologies LLC, priority 2010, dated 2013).
# Assays:
# Format in all cases: cell-based
# Conditions in all cases: 4 weeks; for % inhibition: at the total conc given; for Total conc, ppm: minimum inhibitory concentration in paint
# [1] = test system: Cp + To + Ta + Cs + Ck + Nc; assay: Algal efficacy testing, modified ASTM 5589, paint film, pool grown on Bold media
# Experimental: (§1) A single or blend of biocides was post added into white acrylic latex paint free of biocides to give a maximum total active ingredient/s concentration tested. This paint was then diluted with a biocide free acrylic latex paint to give targeted concentrations for the testing. Depending on the type of biocide blends tested, the total biocides concentrations varies from 200 to 5000 ppm. After biocides addition or dilution, each sample was hand mixed for at least a minute until uniformity is achieved. Each of the paint samples as well as a control sample (containing no biocide) were used to prepare films on black plastic-vinyl chloride/acetate copolymer panels (LENETA, Mahwah, N.J.) using a 3 mil (0.0762 mm) bird bar applicator. The panels were thoroughly dried for at least 2 days avoiding direct exposure to sunlight. Square discs (0.5 inch; 1.27 cm^2) were cut out from each panel and were used as the substrate for fungal and algal efficacy tests. This sample size allowed for an agar border when the sample disc was placed into the well of the test plate. Each sample was tested in duplicate
# (§2) The appropriate media (BOLD'S 3N for Chlorophytes, BG-11 for Cyanobacteria, and PDA for fungi) were used to support microbial growth. The test plates were maintained at room temp (25° C.-26° C.), in a cycled light-dark environment, for four weeks for algae. Plates for fungal challenge tests were maintained at 30 C for four weeks. At the end of the incubation period the samples were scored for percent area covered by visible microbial growth.
# (§3) Algal Efficacy Testing—Modified ASTM 5589
# (§4) ASTM 5589 is a standard accelerated test method for determining resistance of various coatings (including paints) to algal defacement. To accommodate for high-throughput screening, this method was scaled down from petri plates to 6-well plates. A single coupon was placed with a pair of sterile forceps at the center of the agar plug (on top) with the painted surface facing upwards. Algal inoculums were prepared by mixing equal concentrations (1×10^6 cfu/ml) and equal volumes (depending on number of samples to be inoculated) of like growing organisms.
# (§5) In Diclosulam+various IT synergy study, only two pools of mixed algae were prepared; Gloeocapsa sp. and Oscillatoria sp. grown on BG-11 media and Chlorella sp., Chlorella kessleri, Nostoc commune, Trentepohlia aurea, Tretepohlia odorata, and Calotrix parientina grown on Bold media
# (§6) Each well that contains a tested coupon was inoculated with 400 μl of organism mixture (1×10^6 cfu/ml) making sure that the whole surface (paint film as well as the agar surrounding it) was evenly covered. The plates were incubated at room temp (25° C.-26° C.) with cyclic exposure to light (OTT-Lite model #OTL4012P, 40 Watt, 26 KLumen) and dark phases, for a period of four weeks. The total area covered was evaluated at the end of each week according to percent area covered in 5% increments.
# (§7) Synergy Index Calculation
# (§8) The SI is calculated based on F. C. Kull et.
# (§9) Qa=the concentration of Biocide A in the blend
# (§10) QA=The concentration of Biocide A as the only biocide
# (§11) Qb=The concentration of Biocide B in the blend
# (§12) QB=The concentration of Biocide B as the only biocide
# (§13) SI value of <1 in the formula indicates a synergism of the blended biocides exists.
# (§14) NE=no end point at the concentration tested that will meet the percent inhibition criteria set in each SI calculation
# [2] = test system: Aa + Tv + An + Pf + Ap + Ch; assay: Fungal efficacy testing, modified ASTM 5590, paint film, single pool of all fungi
# Experimental: as §1, §2
# (§15) Fungal Efficacy Testing—Modified ASTM 5590
# (§16) ASTM 5590 is a standard accelerated test method for determining resistance of various coatings (including paints) to fungal defacement. To accommodate for high-throughput screening, this method was scaled down from petri plates to 6-well plates. To set up the test, an agar plug was placed at the bottom of each well of the sterile 6-well plate. A single coupon was placed with a pair of sterile forceps at the center of the agar plug (on top) with the painted surface facing upwards. Fungal inoculums were prepared by mixing equal concentrations (1×10^6 cfu/ml) and equal volumes (depending on number of samples to be tested) of like growing organisms. For Flumetsulam+various IT synergy study, three pools of mixed fungi were prepared as the test inoculum. Cladosporium herbarum was mixed with Aureobasidium pullulans; Aspergillus niger was mixed with Penicillium funiculosum and Alternaria alternata was mixed with Trichoderma viride. For Diclosulam+various IT synergy study, all above fungi were mixed as a single pool. Each well was inoculated with 400 μl of organism mixture (1×10^6 cfu/ml) making sure that the whole surface (paint film as well as the agar surrounding it) was evenly covered. The plates were incubated at 30° C. in presence of moisture, for a period of four weeks. The total percent area covered was evaluated and recorded at the end of each week after the 2nd week and recorded in increments of 5%.
# as §7, §8, §9, §10, §11, §12, §13, §14
# [3] = test system: Gloeocapsa sp. and Oscillatoria sp. (Gs + Os); assay: Algal efficacy testing, modified ASTM 5589, paint film
# Experimental: as §1, §2, §3, §4
# (§17) In Flumetsulam+various IT synergy study, three pool of mixed algae were prepared as the test inoculum, Gloeocapsa sp. and Oscillatoria sp. a mix of cyanobacteria grown on BG-11 media; Chlorella sp., Chlorella kessleri, and Nostoc commune are unicellular chlorphytes that were mixed and grown on Bold media; Trentepohlia aurea, Tretepohlia odorata, and Calotrix parientina are filamentous algae that were mixed and grown on Bold media.
# as §5, §6, §7, §8, §9, §10, §11, §12, §13, §14
# [4] = test system: Trentepohlia aurea, Tretepohlia odorata, and Calotrix parientina (Cp + To + Ta); assay: as above
# Experimental: as §1, §2, §3, §4, §17, §6, §7, §8, §9, §10, §11, §12, §13, §14
# [5] = test system: Chlorella sp., Chlorella kessleri, and Nostoc commune (Cs + Ck + Nc); assay: as above
# Experimental: as §1, §2, §3, §4, §17, §6, §7, §8, §9, §10, §11, §12, §13, §14
# [6] = test system: Aspergillus niger mixed with Penicillium funiculosum (AnPf); assay: Fungal efficacy testing, modified ASTM 5590, paint film
# Experimental: as §1, §2, §15, §16, §7, §8, §9, §10, §11, §12, §13, §14
# [7] = test system: Alternaria alternata mixed with Trichoderma viride (AaTv); assay: as above
# Experimental: as §1, §2, §15, §16, §7, §8, §9, §10, §11, §12, §13, §14
# [8] = test system: Cladosporium herbarum mixed with Aureobasidium pullulans (ApCh); assay: as above
# Experimental: as §1, §2, §15, §16, §7, §8, §9, §10, §11, §12, §13, §14
# [9] = Synergy study of Diclosulam and DCOIT
# [10] = Synergy study of Diclosulam+OIT
# [11] = Flumetsulam:BBIT synergy study, NE=no end point
# [12] = Flumetsulam:DCOIT synergy study
smiles,measurement,setting,value
"CCOc1nc(F)cc2nc(S(=O)(=O)Nc3c(Cl)cccc3Cl)nn12 [Diclosulam, N-(2,6-dichlorophenyl)-5-ethoxy-7-fluoro[1,2,4]triazolo[1,5-c]pyrimidine-2-sulfonamide]",% inhibition,[1]; [9],100%
same,"Total conc, ppm",[1]; [9],437.5 ppm
same,% inhibition,[1]; [10],100%
same,"Total conc, ppm",[1]; [10],437.5 ppm
same,% inhibition,[2]; [9],40%
same,"Total conc, ppm",[2]; [9],3500 ppm
same,% inhibition,[2]; [10],0%
same,"Total conc, ppm",[2]; [10],3500 ppm
same,% inhibition,[3]; [9],100%
same,"Total conc, ppm",[3]; [9],437.5 ppm
same,% inhibition,[3]; [10],100%
same,"Total conc, ppm",[3]; [10],437.5 ppm
"Cc1ccn2nc(S(=O)(=O)Nc3c(F)cccc3F)nc2n1 [Flumetsulam, N-(2,6-difluorophenyl)-5-methyl[1,2,4]triazolo[1,5-a]pyrimidine-2-sulfonamide]",% inhibition,[4]; Flumetsulam:BBIT synergy study,0%
same,"Total conc, ppm",[4]; [11],3500 ppm
same,% inhibition,[4]; [12],95%
same,"Total conc, ppm",[4]; [12],437.5 ppm
same,% inhibition,[4]; Flumetsulam:OIT synergy study,60%
same,"Total conc, ppm",[4]; Flumetsulam:OIT synergy study,437.5 ppm
same,% inhibition,[5]; Flumetsulam:BBIT synergy study,0%
same,"Total conc, ppm",[5]; Flumetsulam:BBIT synergy study,3500 ppm
same,% inhibition,[5]; [12],100%
same,"Total conc, ppm",[5]; [12],1750 ppm
same,% inhibition,[5]; Flumetsulam:OIT synergy study,65%
same,"Total conc, ppm",[5]; Flumetsulam:OIT synergy study,2625 ppm
same,% inhibition,[6]; Flumetsulam:BBIT synergy study,0%
same,"Total conc, ppm",[6]; Flumetsulam:BBIT synergy study,3500 ppm
same,% inhibition,[6]; [12],0%
same,"Total conc, ppm",[6]; [12],3500 ppm
same,% inhibition,[6]; Flumetsulam:OIT synergy study,65%
same,"Total conc, ppm",[6]; Flumetsulam:OIT synergy study,3500 ppm
same,% inhibition,[7]; Flumetsulam:BBIT synergy study,0%
same,"Total conc, ppm",[7]; [11],3500 ppm
same,% inhibition,[7]; [12],0%
same,"Total conc, ppm",[7]; [12],3500 ppm
same,% inhibition,[7]; Flumetsulam:OIT synergy study,0%
same,"Total conc, ppm",[7]; Flumetsulam:OIT synergy study,3500 ppm
same,% inhibition,[8]; Flumetsulam:BBIT synergy study,0%
same,"Total conc, ppm",[8]; [11],3500 ppm
same,% inhibition,[8]; [12],90%
same,"Total conc, ppm",[8]; [12],3500 ppm
same,% inhibition,[8]; Flumetsulam:OIT synergy study,0%
same,"Total conc, ppm",[8]; Flumetsulam:OIT synergy study,3500 ppm
same,% inhibition,[3]; Flumetsulam:BBIT synergy study,0%
same,"Total conc, ppm",[3]; Flumetsulam:BBIT synergy study,3500 ppm
same,% inhibition,[3]; [12],100%
same,"Total conc, ppm",[3]; [12],2625 ppm
same,% inhibition,[3]; Flumetsulam:OIT synergy study,90%
same,"Total conc, ppm",[3]; Flumetsulam:OIT synergy study,437.5 ppm
"CCCCn1sc2ccccc2c1=O [BBIT, N-n-butyl-1,2-benzisothiazolin-3-one]",% inhibition,[4]; Flumetsulam:BBIT synergy study,0%
same,"Total conc, ppm",[4]; [11],1150 ppm
same,% inhibition,[5]; Flumetsulam:BBIT synergy study,0%
same,"Total conc, ppm",[5]; Flumetsulam:BBIT synergy study,1150 ppm
same,% inhibition,[6]; Flumetsulam:BBIT synergy study,0%
same,"Total conc, ppm",[6]; Flumetsulam:BBIT synergy study,1150 ppm
same,% inhibition,[7]; Flumetsulam:BBIT synergy study,0%
same,"Total conc, ppm",[7]; [11],1150 ppm
same,% inhibition,[8]; Flumetsulam:BBIT synergy study,80%
same,"Total conc, ppm",[8]; [11],575 ppm
same,% inhibition,[3]; Flumetsulam:BBIT synergy study,0%
same,"Total conc, ppm",[3]; Flumetsulam:BBIT synergy study,1150 ppm
"CCCCCCCCn1sccc1=O [OIT, 2-n-octyl-4-isothiazolin-3-one]",% inhibition,[4]; Flumetsulam:OIT synergy study,100%
same,"Total conc, ppm",[4]; Flumetsulam:OIT synergy study,450 ppm
same,% inhibition,[5]; Flumetsulam:OIT synergy study,100%
same,"Total conc, ppm",[5]; Flumetsulam:OIT synergy study,450 ppm
same,% inhibition,[6]; Flumetsulam:OIT synergy study,100%
same,"Total conc, ppm",[6]; Flumetsulam:OIT synergy study,450 ppm
same,% inhibition,[7]; Flumetsulam:OIT synergy study,100%
same,"Total conc, ppm",[7]; Flumetsulam:OIT synergy study,900 ppm
same,% inhibition,[8]; Flumetsulam:OIT synergy study,80%
same,"Total conc, ppm",[8]; Flumetsulam:OIT synergy study,900 ppm
same,% inhibition,[1]; [10],100%
same,"Total conc, ppm",[1]; [10],900 ppm
same,% inhibition,[2]; [10],100%
same,"Total conc, ppm",[2]; [10],450 ppm
same,% inhibition,[3]; Flumetsulam:OIT synergy study,100%
same,"Total conc, ppm",[3]; Flumetsulam:OIT synergy study,450 ppm
same,% inhibition,[3]; [10],100%
same,"Total conc, ppm",[3]; [10],900 ppm
"CCCCCCCCn1sc(Cl)c(Cl)c1=O [DCOIT, 4,5-dichloro-2-n-octyl-4-isothiazolin-3-one]",% inhibition,[4]; [12],100%
same,"Total conc, ppm",[4]; [12],143.75 ppm
same,% inhibition,[5]; [12],100%
same,"Total conc, ppm",[5]; [12],1150 ppm
same,% inhibition,[6]; [12],100%
same,"Total conc, ppm",[6]; [12],575 ppm
same,% inhibition,[7]; [12],85%
same,"Total conc, ppm",[7]; [12],575 ppm
same,% inhibition,[8]; [12],100%
same,"Total conc, ppm",[8]; [12],862.5 ppm
same,% inhibition,[1]; [9],100%
same,"Total conc, ppm",[1]; [9],625 ppm
same,% inhibition,[2]; [9],80%
same,"Total conc, ppm",[2]; [9],625 ppm
same,% inhibition,[3]; [12],100%
same,"Total conc, ppm",[3]; [12],143.75 ppm
same,% inhibition,[3]; [9],100%
same,"Total conc, ppm",[3]; [9],625 ppm
